A short description of series [1]: UV-Vis absorption and fluorescence emission spectroscopy. Format: physicochemical. The following applies: in Toluene. The source says: The photophysical properties of the collected products were studied by UV-Vis absorption and fluorescence emission spectroscopy, and the results are shown in FIGS. 1A to 1B and Table 1. In the UV-Vis absorption spectrum, BO and NO show absorption peaks in the region of about 380 nm, and BS and NS show absorption maximum values in the region of about 435 nm. The difference in the absorption peak may be confirmed from the shape difference of the HOMO-LUMO of FIG. 2A.

Series [2] can be described thus: Singlet oxygen quantum yield determination. Format: physicochemical. The note with it: determined with respect to Ru(bpy)3^2+; — = not observed. The source says:
Compounds BO and NO show strong fluorescence (ΦFBO=0.71, ΦF NO=0.28), but ISC is inefficient due to weak spin-orbit coupling (SOC).

Series [3] deals with HeLa cells. Put plainly: MTT photo/dark cytotoxicity assay with blue light irradiation. Format: cell-based. The note with it: for cell viability (dark cytotoxicity): MTT, FIGS. 3A and 3B, 20 μM printed for BS; for IC50: normoxia, after blue light irradiation, read-out: IC50 (photocytotoxicity); for cancer cell toxicity without light: working concentration; for cell death under blue light irradiation: both normoxia and hypoxia. The protocol:
Cell toxicity was evaluated by treating HeLa cells with 10 μM NS and BS solutions, respectively, incubating cells for 30 minutes, and then irradiating blue light (blue LED, 80 mW/cm^2) for 5 minutes. The results are shown in FIGS. 3A to 3C and FIGS. 4A to 4D. Based on the ^1O2 generation efficiency and photostability of BS and NS of FIGS. 3A to 3C, photo/dark cytotoxicity to HeLa cells was observed using MTT (traditional methyl thiazolytetralium) assay. FIGS. 3A and 3B show viability of 85% in BS (20 μM) and 97% in NS. The introduction of the C═S bond leads to a highly efficient ISC process, improving the generation of type I and type II ROS, thereby resulting in high ^1O2 quantum yield as well as O2· production. […] NS induces higher photocytotoxicity than BS by higher oxygen quantum yield and may be utilized as a phototheranostic agent with a low IC50 value in normoxia. Further, in FIG. 3C, NS (3 μM) has a cell viability of 29.6% under a normoxia condition and a cell viability of 36.5% under a hypoxia condition (mixed gas: 5% CO2, 1% O2 and 94% N2) so as to effectively induce photocytotoxicity to HeLa cells.

Series [4] relates to HeLa cells. Kind of series: DCFH-DA ROS fluorescence imaging after blue LED irradiation. Format: cell-based. The following applies: 5 μM, DCFH-DA 10 μM, blue LED 5 minutes. The protocol: FIG. 4A is a diagram illustrating a fluorescence image of live HeLa cells after incubation in BS (5 μM) and DCFH-DA (10 μM) for 30 minutes, and FIG. 4C is a diagram illustrating a BS fluorescence image after light irradiation under blue LED light for 5 minutes thereafter (λ=473 nm and λem=490 to 590 nm) according to an example embodiment of the present disclosure in which these compounds were dissolved in DMSO.
FIG. 4B is a diagram illustrating s a fluorescence image of live HeLa cells after incubation in NS (5 μM) and DCFH-DA (10 μM) for 30 minutes according to an example embodiment of the present disclosure, and FIG. 4D is a diagram illustrating an NS fluorescence image after light irradiation under blue LED light for 5 minutes thereafter (λex=473 nm and λem=490 to 590 nm) in which these compounds were dissolved in DMSO.
Finally, their fluorescence is completely recovered after hypochlorite anion (OCl^−) treatment using the OCl^− probe of live HeLa cells. […] It may be confirmed that the C═S group plays an important role in the generation of type I ROS of previously unreported photosensitizers (PS).

The nature of series [5]: Response and selectivity for detection of OCl− (UV-Vis and fluorescence). The following applies: 20 μM; for isosbestic point in UV-vis titration with OCl−: NaClO 0 to 75 μM, PBS pH 7.4 with 50% THF; for selectivity for OCl− among ROS, RNS and metal ions: OCl− 60 μM, PBS pH 7.4/THF (5/5); for fluorescence wavelength at which intensity was read: PBS buffer 10 mM pH 7.4 containing 50% THF. The protocol:
Fluorescence intensity ratios were measured for each of BS and NS in […] (10 mM, pH=7.4) containing 50% THF at the presence of OCl^− (60 μM), ROO·(1 mM), NO·(1 mM), H2O2 (1 mM), TBHP (1 mM), ONOO^− (100 μM), ·OH (200 μM) and various metal ions (200 μM): Ag^+, Hg^2+, Fe^2+, and other ions (Ni^2+, Cu^2+, Zn^2+, Cd^2+, Mg^2+, Ca^2+, Cr^3+, Mn^2+, Fe^3+, Li^+, Na^+, K^+, Cs^+). Recognition of ROS, RNS and metal cations by BS and NS was investigated through colorimetric changes, UV absorption and fluorescence emission changes in PBS 7.4 pH/THF (5/5).
Similarly, in FIG. 6C, the broad absorption band decreases in the 420 to 600 nm range of the NS solution, whereas the absorption band at 370 nm gradually increases with OCI^−-addition (a characteristic of NO).
In Scheme 3, the photophysical change by oxidative desulfurization from the C═S groups of BS and NS to the corresponding C═O groups of BO and NO by hypochlorous acid (OCl^−) may be shown.

Series [6] relates to HeLa cells. Put plainly: Bio-imaging of OCl− by confocal fluorescence microscopy. Format: cell-based. The following applies: 10 μM, 10 minutes, then OCl− 10 minutes. The protocol: HeLa cells were treated with 10 μM NS and BS solutions, respectively. Then, HeLa cells were incubated for 10 minutes and then incubated with hypochlorous acid (OCl^−) for 10 minutes to perform hypochlorous acid (OCl^−) detection fluorescence signal and bioimaging.

In the case of `O=c1c2cccc3cccc(c32)c2nc3ccccc3n12` [BO, reference compound], in series [1], the “ΔV (Stock shift)” value amounted to 105 nm, the “ε × 10^3” value is recorded as 8.54 × 10^3 M^−1 cm^−1 and the λems is given as 488 nm. Moreover, the “ΦF (fluorescence quantum yield)” value in series [1] (Rhodamine 6G as the standard, — = not observed) came out at 0.71.

The IC50 is the point on the concentration scale where inhibition reaches its midpoint. For the compound `S=c1c2cccc3cccc(c32)c2nc3cc4ccccc4cc3n12` [NS], in series [1], the “ΔV (Stock shift)” value is reported as 110 nm, the “ε × 10^3” value is 17.87 × 10^3 M^−1 cm^−1 and the λems was found to be 551 nm. Besides, the “ΦΔ (singlet oxygen quantum yield)” value in series [2] amounted to 0.81. Besides, the “cell viability, hypoxia” value with HeLa cells [3] (HeLa cells, 3 μM, hypoxia condition (5% CO2, 1% O2 and 94% N2), light) was determined as 36.5%. The “cell viability, normoxia” value in the series on HeLa cells [3] (HeLa cells, 3 μM, normoxia condition, light) is given as 29.6%. Moreover, in the series on HeLa cells [3] (HeLa cells), the “cell viability (dark cytotoxicity)” value came to 97%, the half-inhibitory concentration (IC50) was 1.03 µM and the “cancer cell toxicity without light” value was “negligible cancer cell toxicity”. In addition, the “cell death under blue light irradiation” value with HeLa cells [3] is “rapidly induce cell death”. Besides, the “ROS generation (DCFH-DA green signal)” value in the series on HeLa cells [4] was “may generate ROS”. In series [5], the “isosbestic point in UV-vis titration with OCl−” value was 411 nm; the “selectivity for OCl− among ROS, RNS and metal ions” value is “high selectivity”; the “fluorescence wavelength at which intensity was read” value is given as 559 nm. For the same compound, the “intracellular OCl− detection” value in the series on HeLa cells [6] is “adequately detect OCl^−”.

On to `S=c1c2cccc3cccc(c32)c2nc3ccccc3n12` [BS], for which, in series [1], the “ΔV (Stock shift)” value was 66 nm, the “ε × 10^3” value is recorded as 10.85 × 10^3 M^−1 cm^−1 and the λems came to 495 nm. Moreover, the “ΦΔ (singlet oxygen quantum yield)” value in series [2] is 0.66. In addition, in the series with HeLa cells [3] (HeLa cells), the “cell viability (dark cytotoxicity)” value turned out to be 85%, the IC50 came to 5.81 µM and the “cancer cell toxicity without light” value is listed as “negligible cancer cell toxicity”. Moreover, the “cell death under blue light irradiation” value in the series on HeLa cells [3] was “rapidly induce cell death”. The “ROS generation (DCFH-DA green signal)” value in the series on HeLa cells [4] is given as “may generate ROS”. In addition, in series [5], the “isosbestic point in UV-vis titration with OCl−” value is on record as 403 nm; the “selectivity for OCl− among ROS, RNS and metal ions” value is given as “high selectivity”; the “fluorescence wavelength at which intensity was read” value was determined as 505 nm. In the series on HeLa cells [6], the “intracellular OCl− detection” value is reported as “adequately detect OCl^−”.

For the origin of these results see patent US12502430B2, “Compound for photodynamic therapy of cancer, composition including same, and method for photodynamic therapy of cancer” (Pukyong National University Industry-University Cooperation …, priority 2021, dated 2025).
